Reference: patent EP1948196B1, “USE OF TETRAORGANOSILICON COMPOUNDS” (Salama, Zoser B., priority 2005, dated 2007)
≈ marks a conversion by molar mass, not a printed value. Numbered stars: 1 amine (or outer) side, 2 acyl side, 3 side chain; on linkers, the order of the positions; unused ones are H or OH. Bridge positions count the residues as written; N and C are the ends. Peptide text beside a SMILES is read from it. I, II: the chains in the order shown. X2 = c1ccc([Si](O[*:1])(O[*:2])c2ccccc2)cc1

Tests used:
Lymphome = assay: Effect on lymphomas
Hepatitis-Viren = assay: Antiviral effect; conditions: in particular as vesicles holding antisense constructs
Angiosarkome = assay: Effect on angiosarcomas
Basalzellkarzinome = assay: Effect on basal cell carcinomas
Sendai-Viren = assay: Antiviral effect; conditions: in particular as vesicles holding antisense constructs
Hepatitis B-Viren = assay: Antiviral effect; conditions: in particular as vesicles holding antisense constructs
Adenokarzinom-Gewebe = assay: Effect against adenocarcinoma tissue, inhibition of metastasis
Seminome = assay: Effect on seminomas
Hepatitis C-Viren = assay: Antiviral effect; conditions: in particular as vesicles holding antisense constructs
[1] = system: IEC6 - mausartige Enterozyten; assay: MTT assay / EZ4U test, 4 days; assay type: cell-based; conditions: Rattus norvegicus, IEC-6, read-out: IC50 IEC6
Experimental: (§1) Die Silane 1, 5, 9, 10, 11, 13, 15, 16 wurden in Ethanol gelöst und in MTT Assays in einer anfänglichen Konzentration von 200 µg/ml (5 Lösungsschritte 200 - 12.5 µg/ml) verwendet. Die Platten wurde für eine Dauer.von 4 Tagen inkubiert und die Entwicklungsfähigkeit mithilfe des EZ4U Test bestimmt. Die IC50 Werte wurden ausgehend von Dosierungs-Reaktions-Linien berechnet Zelllinien: Colo 205 and HT29 - Kolonkarzinom; BxPC3 and MIAPaCa2 - Pankreaskrebs; CRO2B - karzinoid, A431 Epidermalkarzinom; normale Zellen: WI38 - humane embryonale Fibroblasten; NIH3T3 - mausartige Fibroblasten; IEC6 - mausartige Enterozyten.

[2] = system: NIH3T3 - mausartige Fibroblasten; assay: MTT assay / EZ4U test, 4 days; assay type: cell-based; conditions: Mus musculus, NIH3T3, read-out: IC50 NIH3T3
Experimental: as §1

Colo 205 - Kolonkarzinom = assay: MTT assay / EZ4U test, 4 days; assay type: cell-based; conditions: Homo sapiens, COLO 205, read-out: IC50 Colo205
Experimental: as §1

MIAPaCa2 - Pankreaskrebs = assay: MTT assay / EZ4U test, 4 days; assay type: cell-based; conditions: Homo sapiens, MIA PaCa-2, read-out: IC50 MlAPaCa2
Experimental: as §1

A431 Epidermalkarzinom = assay: MTT assay / EZ4U test, 4 days; assay type: cell-based; conditions: Homo sapiens, A-431, read-out: IC50 A431
Experimental: as §1

BxPC3 - Pankreaskrebs = assay: MTT assay / EZ4U test, 4 days; assay type: cell-based; conditions: Homo sapiens, BXPC-3, read-out: IC50 BxPC3
Experimental: as §1

[3] = system: WI38 - humane embryonale Fibroblasten; assay: MTT assay / EZ4U test, 4 days; assay type: cell-based; conditions: Homo sapiens, WI-38, read-out: IC50 WI38
Experimental: as §1

CRO2B - karzinoid = assay: MTT assay / EZ4U test, 4 days; assay type: cell-based; conditions: read-out: IC50 CR02B
Experimental: as §1

HT29 - Kolonkarzinom = assay: MTT assay / EZ4U test, 4 days; assay type: cell-based; conditions: Homo sapiens, HT-29, read-out: IC50 HT29
Experimental: as §1

Rhino-Viren = assay: Antiviral effect; conditions: in particular as vesicles holding antisense constructs
Normale Zellen = assay: Mean IC50 over all normal cell lines; assay type: cell-based; conditions: read-out: IC50 Normale Zellen (Durchschnitt ± SD)
Experimental: as §1
(§2) Mittelwerte-IC50 für alle Krebs- oder normalen Zelllinien: […]

[4] = system: BxPC3 (pankreatisches Adenokarzinom); assay: MTT test, triplicate, two-fold dilutions; assay type: cell-based; conditions: Homo sapiens, BXPC-3, read-out: IC50 BxPC3
Experimental: (§3) Die Silan wurden in Ethanol aufgelöst und in Zellkulturmedien in Konzentrationen von bis zu 500 µg/ml resuspendiert. Es wurden MTT Tests in dreifacher Ausführung durchgeführt, für welche doppelte Lösungen (7 Schritte) und colo205 (Kofon-Karzinom), BxPC3 (pankreatisches Adenokarzinom) sowie T47D (Brustkrebs) benutzt wurden.

colo205 (Kofon-Karzinom) = assay: MTT test, triplicate, two-fold dilutions; assay type: cell-based; conditions: Homo sapiens, COLO 205, read-out: IC50 Colo205
Experimental: as §3

T47D (Brustkrebs) = assay: MTT test, triplicate, two-fold dilutions; assay type: cell-based; conditions: Homo sapiens, T47D, read-out: IC50 T47D
Experimental: as §3

Osteosarkome = assay: Effect on osteosarcomas
[5] = system: Panc1 Pankreaskrebszellen; assay: subG1 apoptotic fraction, propidium iodide, flow cytometry; assay type: cell-based; conditions: 50 µg/ml, 4 Tage
Experimental: (§4) Die Zellen (IEC6 mausartige Enterozyten; Panc1 Pankreaskrebszellen; Colo205 Kolonkarzinom) wurden mit 50 µg/ml Silanen inkubiert und nach 4-tägiger Aussetzung auf DNA eingefärbt (Propidiumiodid). Die SubG1 Zellteilung wurde mittels Durchflusscytometrie bestimmt.

[6] = system: IEC6 mausartige Enterozyten; assay: as above; assay type: cell-based; conditions: 50 µg/ml, 4 Tage
Experimental: as §4

Colo205 Kolonkarzinom = assay: as above; assay type: cell-based; conditions: 50 µg/ml, 4 Tage
Experimental: as §4

Krebszellen = assay: Mean IC50 over all cancer cell lines; assay type: cell-based; conditions: read-out: IC50 Krebszellen (Durchschnitt ± SD)
Experimental: as §1, §2

Compound: C[C@H](N)C(=O)N[C@@H](C)C(=O)N[C@@H](C)C(=O)N[C@@H](C)C(=O)N[C@@H](C)C(=O)O[Si](OC(=O)[C@H](C)NC(=O)[C@H](C)NC(=O)[C@H](C)NC(=O)[C@H](C)NC(=O)[C@H](C)N)(c1ccccc1)c1ccccc1 [Diphenyl bis(pentaalanyl)silylester]
- Wirkung auf Lymphome (Lymphome): zeigen eine Wirkung
- Wirkung gegen Hepatitis-Viren (Hepatitis-Viren): zeigen eine Wirkung

Compound: C[C@H](N)C(=O)N[C@@H](C)C(=O)N[C@@H](C)C(=O)N[C@@H](C)C(=O)N[C@@H](C)C(=O)N[C@@H](C)C(=O)N[C@@H](C)C(=O)N[C@@H](C)C(=O)N[C@@H](C)C(=O)O[Si](OC(=O)[C@H](C)NC(=O)[C@H](C)NC(=O)[C@H](C)NC(=O)[C@H](C)NC(=O)[C@H](C)NC(=O)[C@H](C)NC(=O)[C@H](C)NC(=O)[C@H](C)NC(=O)[C@H](C)N)(c1ccccc1)c1ccccc1 [Diphenyl bis(nonaalanyl)silylester] (I: H-AAAAAAAAA / II: H-AAAAAAAAA; linker I:C-II:C via X2)
- Wirkung auf Lymphome (Lymphome): zeigen eine Wirkung
- Wirkung gegen Hepatitis-Viren (Hepatitis-Viren): zeigen eine Wirkung

Compound: CCCCCCCCCCCCCCCCC(=O)O[Si](CCC)(CCC)OC(=O)CCCCCCCCCCCCCCCC [Di(heptadecanoyloxy)dipropylsilan]
- Wirkung gegen Angiosarkome (Angiosarkome): zeigen eine Wirkung
- Wirkung auf Basalzellkarzinome (Basalzellkarzinome): zeigen eine Wirkung
- Wirkung gegen Sendai-Viren (Sendai-Viren): zeigen eine Wirkung
- Wirkung gegen Hepatitis B-Viren (Hepatitis B-Viren): zeigen eine Wirkung

Compound: CCCCCCCCCCCCCCCC(=O)O[Si](CCC)(CCC)OC(=O)CCCCCCCCCCCCCCC [Di(hexadecanoyloxy)dipropylsilan]
- Wirkung gegen Angiosarkome (Angiosarkome): zeigen eine Wirkung
- Wirkung auf Basalzellkarzinome (Basalzellkarzinome): zeigen eine Wirkung
- Wirkung gegen Sendai-Viren (Sendai-Viren): zeigen eine Wirkung
- Wirkung gegen Hepatitis B-Viren (Hepatitis B-Viren): zeigen eine Wirkung

Compound: CCCCCCCC(=O)O[Si](OC(=O)CCCCCCC)(C(C)C)C(C)C [Di(octanoyloxy)diisopropylsilan]
- Wirkung gegen Angiosarkome (Angiosarkome): zeigen eine Wirkung
- Wirkung auf Basalzellkarzinome (Basalzellkarzinome): zeigen eine Wirkung
- Wirkung gegen Sendai-Viren (Sendai-Viren): zeigen eine Wirkung
- Wirkung gegen Hepatitis B-Viren (Hepatitis B-Viren): zeigen eine Wirkung

Compound: CCCCCCCCCCCCC(=O)O[Si](OC(=O)CCCCCCCCCCCC)(C(C)C)C(C)C [Di(tridecanoyloxy)diisopropylsilan]
- Wirkung gegen Adenokarzinom-Gewebe, insbesondere inhibierende Wirkung auf die Metastasierung (Adenokarzinom-Gewebe): haben eine Wirkung

Compound: CCCCC/C=C\C/C=C\CCCCCCCC(=O)O[Si](CCC)(CCC)OC(=O)CCCCCCC/C=C\C/C=C\CCCCC [Di(linoylooxy)dipropylsilan]
- Wirkung auf Seminome (Seminome): zeigen eine Wirkung
- Wirkung gegen Hepatitis C-Viren (Hepatitis C-Viren): zeigen eine Wirkung

Compound: CCCCCCCCCCCCCC(=O)O[Si](OC(=O)CCCCCCCCCCCCC)(C(C)C)C(C)C [Di(tetradecanoyloxy)diisopropylsilan]
- Wirkung gegen Adenokarzinom-Gewebe, insbesondere inhibierende Wirkung auf die Metastasierung (Adenokarzinom-Gewebe): haben eine Wirkung

Compound: CCCCCCCCCCCCCCC(=O)O[Si](OC(=O)CCCCCCCCCCCCCC)(C(C)C)C(C)C [Di(pentadecanoyloxydiisopropylsilan]
- Wirkung gegen Adenokarzinom-Gewebe, insbesondere inhibierende Wirkung auf die Metastasierung (Adenokarzinom-Gewebe): haben eine Wirkung

Compound: CC/C=C\C/C=C\C/C=C\CCCCCCCC(=O)O[Si](CC)(CC)OC(=O)CCCCCCC/C=C\C/C=C\C/C=C\CC [Di(linolenoylooxy)diethylsilan]
- Wirkung auf Seminome (Seminome): zeigen eine Wirkung
- Wirkung gegen Hepatitis C-Viren (Hepatitis C-Viren): zeigen eine Wirkung

Compound: CCCCCCCCCCCCCCC(=O)O[Si](OC(=O)CCCCCCCCCCCCCC)(c1ccccc1)c1ccccc1 [Si5, Di (pentadecanoyloxy) diphenylsilan]
- IC50 [1]: 32.5 µg/mL (≈ 48.9 µM)
- IC50 [2]: 55 µg/mL (≈ 82.7 µM)
- IC50 (Colo 205 - Kolonkarzinom): 43.8 µg/mL (≈ 65.9 µM)
- IC50 (MIAPaCa2 - Pankreaskrebs): 38.5 µg/mL (≈ 57.9 µM)
- IC50 (A431 Epidermalkarzinom): 36.3 µg/mL (≈ 54.6 µM)
- IC50 (BxPC3 - Pankreaskrebs): 25 µg/mL (≈ 37.6 µM)
- IC50 [3]: 36.5 µg/mL (≈ 54.9 µM)
- IC50 (CRO2B - karzinoid): 35 µg/mL (≈ 52.6 µM)
- IC50 (HT29 - Kolonkarzinom): 40 µg/mL (≈ 60.1 µM)
- Wirkung gegen Rhino-Viren (Rhino-Viren): zeigen eine Wirkung
- IC50 (Normale Zellen): 41.3 µg/mL (≈ 62.1 µM)
- IC50 [4]: 60 µg/mL (≈ 90.2 µM)
- IC50 (colo205 (Kofon-Karzinom)): 70 µg/mL (≈ 105 µM)
- IC50 (T47D (Brustkrebs)): 20 µg/mL (≈ 30.1 µM)
- Wirkung auf Osteosarkome (Osteosarkome): zeigen eine Wirkung
- subG1 apoptotische Zellteilung Panc1 [5]: 52,8 ± 3,4
- subG1 apoptotische Zellteilung IEC6 [6]: 6,35 ± 0,63
- subG1 apoptotische Zellteilung Colo205 (Colo205 Kolonkarzinom): 3,4 ± 0,28
- IC50 (Krebszellen): 34 µg/mL (≈ 51.1 µM)

Compound: Diphenyl bis(hexaalanyl)silylester
- Wirkung auf Lymphome (Lymphome): zeigen eine Wirkung
- Wirkung gegen Hepatitis-Viren (Hepatitis-Viren): zeigen eine Wirkung

Compound: C[C@H](N)C(=O)N[C@@H](C)C(=O)N[C@@H](C)C(=O)N[C@@H](C)C(=O)O[Si](OC(=O)[C@H](C)NC(=O)[C@H](C)NC(=O)[C@H](C)NC(=O)[C@H](C)N)(c1ccccc1)c1ccccc1 [Diphenyl bis(tetraalanyl)silylester]
- Wirkung auf Lymphome (Lymphome): zeigen eine Wirkung
- Wirkung gegen Hepatitis-Viren (Hepatitis-Viren): zeigen eine Wirkung

Compound: CC/C=C\C/C=C\C/C=C\CCCCCCCC(=O)O[Si](CCC)(CCC)OC(=O)CCCCCCC/C=C\C/C=C\C/C=C\CC [Di(linolenoylooxy)dipropylsilan]
- Wirkung auf Seminome (Seminome): zeigen eine Wirkung
- Wirkung gegen Hepatitis C-Viren (Hepatitis C-Viren): zeigen eine Wirkung

Compound: CCCCCCCC/C=C\CCCCCCCC(=O)O[Si](CC)(CC)OC(=O)CCCCCCC/C=C\CCCCCCCC [Di (oleylooxy)diethylsilan]
- Wirkung auf Seminome (Seminome): zeigen eine Wirkung
- Wirkung gegen Hepatitis C-Viren (Hepatitis C-Viren): zeigen eine Wirkung

Compound: C[C@H](N)C(=O)N[C@@H](C)C(=O)N[C@@H](C)C(=O)N[C@@H](C)C(=O)N[C@@H](C)C(=O)N[C@@H](C)C(=O)N[C@@H](C)C(=O)O[Si](OC(=O)[C@H](C)NC(=O)[C@H](C)NC(=O)[C@H](C)NC(=O)[C@H](C)NC(=O)[C@H](C)NC(=O)[C@H](C)NC(=O)[C@H](C)N)(c1ccccc1)c1ccccc1 [Diphenyl bis(heptaalanyl)silylester] (I: H-AAAAAAA / II: H-AAAAAAA; linker I:C-II:C via X2)
- Wirkung auf Lymphome (Lymphome): zeigen eine Wirkung
- Wirkung gegen Hepatitis-Viren (Hepatitis-Viren): zeigen eine Wirkung

Compound: C[C@H](N)C(=O)N[C@@H](C)C(=O)N[C@@H](C)C(=O)N[C@@H](C)C(=O)N[C@@H](C)C(=O)N[C@@H](C)C(=O)N[C@@H](C)C(=O)N[C@@H](C)C(=O)O[Si](OC(=O)[C@H](C)NC(=O)[C@H](C)NC(=O)[C@H](C)NC(=O)[C@H](C)NC(=O)[C@H](C)NC(=O)[C@H](C)NC(=O)[C@H](C)NC(=O)[C@H](C)N)(c1ccccc1)c1ccccc1 [Diphenyl bis(octaalanyl)silylester] (I: H-AAAAAAAA / II: H-AAAAAAAA; linker I:C-II:C via X2)
- Wirkung auf Lymphome (Lymphome): zeigen eine Wirkung
- Wirkung gegen Hepatitis-Viren (Hepatitis-Viren): zeigen eine Wirkung

Compound: CCCCCCCCCCCCCCCCCC(=O)O[Si](CCC)(CCC)OC(=O)CCCCCCCCCCCCCCCCC [Di(octadecanoyloxy)dipropylsilan]
- Wirkung gegen Angiosarkome (Angiosarkome): zeigen eine Wirkung
- Wirkung auf Basalzellkarzinome (Basalzellkarzinome): zeigen eine Wirkung
- Wirkung gegen Sendai-Viren (Sendai-Viren): zeigen eine Wirkung
- Wirkung gegen Hepatitis B-Viren (Hepatitis B-Viren): zeigen eine Wirkung

Compound: CCCCCCCCCCCC(=O)O[Si](OC(=O)CCCCCCCCCCC)(C(C)C)C(C)C [Di(dodecanoyloxy)diisopropylsilan]
- Wirkung gegen Adenokarzinom-Gewebe, insbesondere inhibierende Wirkung auf die Metastasierung (Adenokarzinom-Gewebe): haben eine Wirkung

Compound: CCCCCCCCCCCCCCCC(=O)O[Si](OC(=O)CCCCCCCCCCCCCCC)(C(C)C)C(C)C [Di(hexadecanoyloxy)diisopropylsilan]
- Wirkung gegen Adenokarzinom-Gewebe, insbesondere inhibierende Wirkung auf die Metastasierung (Adenokarzinom-Gewebe): haben eine Wirkung
